{"source": "paper PMC11193019", "about": "“Transient kinetics reveal the mechanism of competitive inhibition of the neutral amino acid transporter ASCT2” (The Journal of Biological Chemistry, 2024)", "type_in_all_cases": "cell-based", "key": {"[1]": {"target": "T1, ASCT2 (rASCT2) (Rattus norvegicus, UniProt D3ZJ25)", "T1 construct": "gene Slc1a5; rASCT2 cDNA in pBK-CMV, expressed in HEK293T cells", "T1 sequence (D3ZJ25 1-555)": "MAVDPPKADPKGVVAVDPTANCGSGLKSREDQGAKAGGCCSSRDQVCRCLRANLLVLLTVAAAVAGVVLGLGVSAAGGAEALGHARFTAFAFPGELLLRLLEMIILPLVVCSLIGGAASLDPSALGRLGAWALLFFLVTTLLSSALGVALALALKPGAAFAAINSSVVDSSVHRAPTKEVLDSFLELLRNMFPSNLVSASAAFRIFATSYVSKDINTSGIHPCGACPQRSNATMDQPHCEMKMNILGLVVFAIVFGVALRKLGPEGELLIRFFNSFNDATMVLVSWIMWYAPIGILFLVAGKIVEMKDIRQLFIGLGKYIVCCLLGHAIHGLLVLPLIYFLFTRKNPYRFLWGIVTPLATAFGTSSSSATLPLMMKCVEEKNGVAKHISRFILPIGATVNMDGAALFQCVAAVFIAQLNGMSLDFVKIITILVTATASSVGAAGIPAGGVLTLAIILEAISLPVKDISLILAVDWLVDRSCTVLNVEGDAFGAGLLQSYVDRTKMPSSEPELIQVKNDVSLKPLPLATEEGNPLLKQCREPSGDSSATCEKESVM", "assay": "whole-cell patch clamp (leak anion current block dose response; rapid solution exchange and displacement by serine)"}, "[2]": {"target": "T2, ASCT2 (rASCT2) (Rattus norvegicus, UniProt D3ZJ25, D489N)", "T2 construct": "gene Slc1a5; rASCT2 mutant expressed in HEK293T cells", "T2 sequence (D3ZJ25 1-555 D489N)": "T1 sequence (D3ZJ25 1-555) with D489N", "assay": "whole-cell patch clamp, anion current dose response at […] Na+"}, "[3]": {"target": "T3, ASCT2 (rASCT2) (Rattus norvegicus, UniProt D3ZJ25, D402N)", "T3 construct": "gene Slc1a5; rASCT2 mutant expressed in HEK293T cells", "T3 sequence (D3ZJ25 1-555 D402N)": "T1 sequence (D3ZJ25 1-555) with D402N", "assay": "whole-cell patch clamp, anion current dose response at […] Na+"}}, "note": "Numbering of substitutions follows the chain as printed.", "data": [{"smiles": "O=C(O[C@@H]1CN[C@H](C(=O)O)C1)c1ccc(-c2ccccc2)cc1", "note": "[Lc-BPE, L-cis hydroxyproline biphenyl ester]", "values": [{"measurement": "IC50", "setting": "[1]", "result": "830 ± 200", "unit": "nM"}, {"measurement": "IC50", "setting": "[2]", "result": "4400 ± 800", "unit": "nM"}, {"measurement": "IC50", "setting": "[3]", "result": "1600 ± 100", "unit": "nM"}]}]}
